Measured values: US8790695B2, “Medicinal carriers, and preparation method and uses thereof” (China Medical University, priority 2012, dated 2014)

Experiments:
[1] = system: Helicobacter pylori; conditions: infected mice, fed 30 mg/kg amoxicillin once daily for 10 days
Excerpt: Small black mice were fed with a broth containing 1.0×10^9 CFU/ml Helicobacter pylori continually for 6 times in 2 weeks, to establish a Helicobacter pylori-infected animal model. The mice were fasted one night before fed with Helicobacter pylori, to decrease the mucus in the stomach, and thereby, increase the probability of infection. Then, the Helicobacter pylori-infected mice (6 mice each group) were fed with (a) the nano medicinal carrier obtained from example 1 (2) (control group); (b) 30 mg/kg amoxicillin; and (c) nano medicinal carrier (the concentration of amoxicillin, 30 mg/kg) obtained from example 1 (4) once daily for 10 days. Then, the mice were sacrificed, and the tissue in the stomach was taken off to conduct the colony number experiment.

[2] = system: Helicobacter pylori; conditions: stomach tissue of infected mice, 37° C. for 12 hours
Excerpt: Small black mice were fed with a broth containing 1.0×10^9 CFU/ml Helicobacter pylori continually for 6 times in 2 weeks, to establish a Helicobacter pylori-infected animal model. The mice were fasted one night before fed with Helicobacter pylori, to decrease the mucus in the stomach, and thereby, increase the probability of infection. Then, the Helicobacter pylori-infected mice (6 mice each group) were fed with (a) the nano medicinal carrier obtained from example 1 (2) (control group); (b) 30 mg/kg amoxicillin; and (c) nano medicinal carrier (the concentration of amoxicillin, 30 mg/kg) obtained from example 1 (4) once daily for 10 days.
Campylobacter-like organism assay (CLO assay) was conducted to evaluate the effect of nano medicinal carrier on treating the Helicobacter pylori-infected mice. The internal side of the stomach tissue of the Helicobacter pylori-infected mice was touch with CLO gel and compressed, the tissue was incubated at 37° C. for 12 hours, and the variation of the color of the CLO gel was observed. The CLO gel without Helicobacter pylori (contacted with deionized water) is a yellow color. The CLO gel with a little of Helicobacter pylori is a yellow-orange color. The CLO gel with a lot of Helicobacter pylori is a red color. A darker color represents a higher amount of Helicobacter pylori.

## CC1(C)S[C@@H]2[C@H](NC(=O)[C@H](N)c3ccc(O)cc3)C(=O)N2[C@H]1C(=O)O [amoxicillin solution, amoxicillin]
[1]
  The colony number of Helicobacter pylori in the stomach tissue of the mice: 316.9 ± 30.5
[2]
  color of the CLO gel (darker color = higher amount of Helicobacter pylori): red color
